pIC50: −log10 of the molar value.
Test system: SNB-19
Assay: Antitumor activity against human SNB19 cells after 24 hrs
Type: functional, cell-based
Settings: SNB-19, 24 h

pIC50: 5.21
SMILES: Cc1onc(-c2c3ccccc3c(Cl)c3ccccc23)c1C(=O)Nc1cc(C(=O)NCCCN(C)C)n(C)c1
